{"source": "patent US7872005B2", "about": "“2-substituted heteroaryl compounds” (Synta Pharmaceuticals Corporation, priority 2004, dated 2011)", "key": {"[1]": {"test_system": "IL-12 production in human PBMC or THP-1 cells", "assay": "In vitro inhibition of IL-12 production in stimulated human PBMC or THP-1 cells (ELISA)", "format": "cell-based", "details": "representative in vitro IC50 data", "description": "The biological activities of a heterocyclic compound can be evaluated by a number of cell-based assays. One of such assays can be conducted using cells from human peripheral blood mononuclear cells (PBMC) or human monocytic cell line (THP-1). The cells are stimulated with a combination of human interferon-γ (IFNγ) and lipopolysaccharide or a combination of IFNγ and Staphylococcus aureus Cowan I in the presence of a test compound. The level of inhibition of IL-12 production can be measured by determining the amount of p70 by using a sandwich ELISA assay with anti-human IL-12 antibodies. IC50 of the test compound can then be determined. Specifically, PBMC or THP-1 cells are incubated with the test compound. Cell viability was assessed using the bioreduction of MTS [3-(4,5-dimethylthiazol-2-yl)-5-(3-carboxymethoxyphenyl)-2-(4-sulfophenyl)-2H-tetrazolium] (Promega, Madison, Wis.).\nReagents. Staphylococcus aureus Cowan I (SAC) was obtained from Calbiochem (La Jolla, Calif.), and lipopolysaccharide (LPS, Serratia marscencens) was obtained from Sigma (St. Louis, Mo.). Human and mouse recombinant IFNγ were purchased from Boehringer Mannheim (Mannheim, Germany) and Pharmingen (San Diego, Calif.), respectively.\nHuman In Vitro Assay. Human PBMC were isolated by centrifugation using Ficoll-Paque (Pharmacia Biotech, Uppsala, Sweden) and prepared in RPMI medium supplemented with 10% fetal calf serum (FCS), 100 U/mL penicillin, and 100 μg/mL streptomycin. PBMC were plated in wells of a 96-well plate at a concentration of 5×10^5 cells/well, and primed by adding IFNγ (30 U/mL) for 22 h and stimulated by adding LPS (1 μg/mL), or by adding IFNγ (100 U/mL) and then stimulated by adding SAC (0.01%). A test pyrimidine compound was dissolved in DMSO, and added to wells of the 96-well plate. The final DMSO concentration was adjusted to 0.25% in all cultures, including the compound-free control. Human THP-1 cells were plated in wells, primed by adding IFNγ (100 U/mL) for 22 h and stimulated by adding SAC (0.025%) in the presence of different concentrations of the pyrimidine compound. Cell-free supernatants were taken 18 h later for measurement of cytokines. Cell viability was assessed using the bioreduction of MTS. Cell survival was estimated by determining the ratio of the absorbance in compound-treated groups versus compound-free control.\nThe supernatant was assayed for the amount of IL-12p40, IL-12p70, or IL-10 by using a sandwich ELISA with anti-human antibodies, i.e., a Human IL-12 p40 ELISA kit from R&D Systems (Berkeley, Calif.), and a Human IL-12 p70 or IL-10 ELISA kit from Endogen (Cambridge, Mass.). Assays were based on the manufacturer's instructions.\nThe biological activities of pyrimidine compounds were tested on human PBMC or THP-1 cells. Unexpectedly, some of the test compounds have IC50 values as low as <1 nM."}, "[2]": {"test_system": "DNBS-induced distal colitis in Wistar derived rats", "assay": "Dinitrobenzene sulfonic acid-induced inflammatory bowel syndrome model rats (distal colitis)", "format": "in vivo, rat", "details": "oral, 24 and 2 hours before DNBS, then daily for 5 days; relative to net increase of vehicle+DNBS group", "experimental": "Treatment of Crohn's disease in dinitrobenzene sulfonic acid-induced inflammatory bowel syndrome model rats: Wistar derived male or female rats weighing 200±20 g and fasted for 24 hours were used. Distal colitis was induced by intra-colonic instillation of 2,4-dinitrobenzene sulfonic acid (DNBS, 25 mg in 0.5 mL ethanol 30%) after which air (2 mL) was gently injected through the cannula to ensure that the solution remained in the colon. A test compound and/or vehicle was administered orally 24 and 2 hours before DNBS instillation and then daily for 5 days. One control group was similarly treated with vehicle alone while the other is treated with vehicle plus DNBS. The animals were sacrificed 24 hours after the final dose of test compound administration and each colon was removed and weighed. Colon-to-body weight ratio was then calculated for each animal according to the formula: Colon (g)/BW×100. The “Net” increase in ratio of Vehicle-control+DNBS group relative to Vehicle-control group was used as a base for comparison with test substance treated groups and expressed as “% Deduction.” Pyrimidine compounds of this invention (e.g., Compound 12) reproducibly had about 30% deduction. A 30% or more reduction in colon-to-body weight ratio, relative to the vehicle treated control group, was considered significant."}}, "data": [{"compound": "Cc1cccc(/C=N/Nc2cc(N3CCOCC3)nc(CCOC(=O)Nc3cccc(C(F)(F)F)c3)n2)c1", "note": "[Compound 12, (3-Trifluoromethyl-phenyl)-carbamic acid 2-{4-[N′-(3-methyl-benzylidene)-hydrazino]-6-morpholin-4-yl-pyrimidin-2-yl}-ethyl ester]", "values": [{"measurement": "IC50", "setting": "[1]", "value": "< 25", "unit": "nM"}, {"measurement": "% Deduction (colon-to-body weight ratio)", "setting": "[2]", "value": "about 30%"}]}]}
